In ChEMBL document CHEMBL5303766, “Data for DCP probe FHT-2344” (2022):

Experiments:
[1] = target: T1, Cyclin-G-associated kinase (Homo sapiens) (UniProt O14976); assay: GAK SGC Tm panel (DSF); conditions: for ΔTm: Compound concentration 10.0 uM
T1 sequence (whole entry): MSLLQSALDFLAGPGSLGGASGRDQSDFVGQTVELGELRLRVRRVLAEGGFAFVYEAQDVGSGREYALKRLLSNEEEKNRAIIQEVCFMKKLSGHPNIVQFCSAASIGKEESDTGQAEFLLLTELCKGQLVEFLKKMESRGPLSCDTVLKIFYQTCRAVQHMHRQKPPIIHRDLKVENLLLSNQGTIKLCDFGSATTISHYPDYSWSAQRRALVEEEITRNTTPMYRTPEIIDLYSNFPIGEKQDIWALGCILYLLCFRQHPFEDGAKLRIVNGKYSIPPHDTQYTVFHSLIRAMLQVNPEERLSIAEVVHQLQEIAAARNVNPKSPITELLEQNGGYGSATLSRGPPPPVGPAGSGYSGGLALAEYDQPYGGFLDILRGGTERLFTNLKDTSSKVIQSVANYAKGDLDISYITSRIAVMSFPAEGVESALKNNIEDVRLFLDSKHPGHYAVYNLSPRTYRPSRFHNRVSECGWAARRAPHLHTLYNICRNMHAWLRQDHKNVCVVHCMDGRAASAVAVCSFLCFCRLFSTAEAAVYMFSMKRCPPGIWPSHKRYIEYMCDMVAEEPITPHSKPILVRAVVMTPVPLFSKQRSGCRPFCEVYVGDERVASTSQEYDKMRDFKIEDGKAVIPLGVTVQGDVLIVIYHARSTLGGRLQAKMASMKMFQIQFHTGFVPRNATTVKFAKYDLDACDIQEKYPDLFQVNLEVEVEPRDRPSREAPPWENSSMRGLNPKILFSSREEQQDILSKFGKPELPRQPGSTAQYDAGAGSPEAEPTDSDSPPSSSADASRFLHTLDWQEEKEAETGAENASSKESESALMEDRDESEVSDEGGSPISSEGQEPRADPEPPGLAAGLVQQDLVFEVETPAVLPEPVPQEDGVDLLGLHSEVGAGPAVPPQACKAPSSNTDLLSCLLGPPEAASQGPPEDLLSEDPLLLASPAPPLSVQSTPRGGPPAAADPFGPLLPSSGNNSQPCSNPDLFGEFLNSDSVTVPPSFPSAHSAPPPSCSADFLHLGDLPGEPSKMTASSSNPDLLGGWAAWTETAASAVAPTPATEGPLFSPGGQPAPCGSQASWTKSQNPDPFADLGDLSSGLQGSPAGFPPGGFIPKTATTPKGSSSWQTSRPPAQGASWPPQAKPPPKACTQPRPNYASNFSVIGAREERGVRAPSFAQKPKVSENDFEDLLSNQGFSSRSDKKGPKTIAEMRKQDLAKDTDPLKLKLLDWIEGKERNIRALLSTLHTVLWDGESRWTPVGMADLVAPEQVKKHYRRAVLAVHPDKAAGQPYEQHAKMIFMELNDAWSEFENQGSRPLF

[2] = target: T2, Ephrin type-B receptor 1 (Homo sapiens) (UniProt P54762); assay: EPHB1 SGC Tm panel (DSF); conditions: for ΔTm: Compound concentration 10.0 uM
T2 sequence (whole entry): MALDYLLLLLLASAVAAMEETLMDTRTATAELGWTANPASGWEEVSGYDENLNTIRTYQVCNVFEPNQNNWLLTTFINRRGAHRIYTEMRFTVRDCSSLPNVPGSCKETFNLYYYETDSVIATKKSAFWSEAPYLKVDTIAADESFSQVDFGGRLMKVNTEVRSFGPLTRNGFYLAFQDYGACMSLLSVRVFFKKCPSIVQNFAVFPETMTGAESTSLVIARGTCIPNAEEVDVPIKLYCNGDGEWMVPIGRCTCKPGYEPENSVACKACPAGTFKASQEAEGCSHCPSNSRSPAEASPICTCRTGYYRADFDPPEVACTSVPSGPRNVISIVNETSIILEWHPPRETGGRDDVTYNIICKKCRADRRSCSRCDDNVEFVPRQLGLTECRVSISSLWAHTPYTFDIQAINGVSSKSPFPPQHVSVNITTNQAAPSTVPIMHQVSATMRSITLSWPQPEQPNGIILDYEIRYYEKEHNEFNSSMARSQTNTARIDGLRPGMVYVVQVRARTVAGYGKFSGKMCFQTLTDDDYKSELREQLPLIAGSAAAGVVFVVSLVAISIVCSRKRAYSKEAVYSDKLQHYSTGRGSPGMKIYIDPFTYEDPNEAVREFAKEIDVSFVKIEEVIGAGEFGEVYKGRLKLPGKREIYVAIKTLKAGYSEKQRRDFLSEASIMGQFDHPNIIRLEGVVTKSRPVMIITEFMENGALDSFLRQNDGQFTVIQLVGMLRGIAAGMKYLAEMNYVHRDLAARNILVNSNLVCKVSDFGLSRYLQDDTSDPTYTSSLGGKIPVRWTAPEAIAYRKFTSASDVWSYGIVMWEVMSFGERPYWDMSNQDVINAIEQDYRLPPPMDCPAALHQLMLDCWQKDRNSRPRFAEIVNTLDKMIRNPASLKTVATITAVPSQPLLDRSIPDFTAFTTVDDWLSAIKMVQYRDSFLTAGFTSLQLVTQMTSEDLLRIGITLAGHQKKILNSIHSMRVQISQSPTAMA

[3] = target: 5-hydroxytryptamine receptor 1D (Homo sapiens) (UniProt P28221); conditions: Compound concentration 10.0 uM
Sequence of 5-hydroxytryptamine receptor 1D (Homo sapiens) (P28221 whole entry): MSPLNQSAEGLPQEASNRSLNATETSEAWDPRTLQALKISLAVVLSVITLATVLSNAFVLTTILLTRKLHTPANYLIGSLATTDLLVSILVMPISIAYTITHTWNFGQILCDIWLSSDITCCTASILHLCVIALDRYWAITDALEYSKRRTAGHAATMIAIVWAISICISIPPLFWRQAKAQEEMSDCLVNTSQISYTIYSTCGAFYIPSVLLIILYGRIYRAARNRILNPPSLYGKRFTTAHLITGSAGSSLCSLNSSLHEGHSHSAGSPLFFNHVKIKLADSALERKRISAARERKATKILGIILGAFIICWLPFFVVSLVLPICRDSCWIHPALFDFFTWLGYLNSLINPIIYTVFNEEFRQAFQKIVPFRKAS

[4] = target: T3, Serine/threonine-protein kinase 17A (Homo sapiens) (UniProt Q9UEE5); assay: STK17A SGC Tm panel (DSF); conditions: for ΔTm: Compound concentration 10.0 uM
T3 sequence (whole entry): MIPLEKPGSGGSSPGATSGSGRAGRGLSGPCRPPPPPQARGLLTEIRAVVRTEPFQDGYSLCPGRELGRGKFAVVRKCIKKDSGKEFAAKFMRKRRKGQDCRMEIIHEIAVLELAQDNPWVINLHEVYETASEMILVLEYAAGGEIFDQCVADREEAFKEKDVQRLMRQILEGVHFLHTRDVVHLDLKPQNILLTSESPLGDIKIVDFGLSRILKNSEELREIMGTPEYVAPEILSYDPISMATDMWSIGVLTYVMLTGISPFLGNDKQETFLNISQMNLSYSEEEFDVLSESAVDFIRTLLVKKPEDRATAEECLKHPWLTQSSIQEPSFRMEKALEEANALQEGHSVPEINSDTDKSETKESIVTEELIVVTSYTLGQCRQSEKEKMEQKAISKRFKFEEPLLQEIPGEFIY

[5] = target: D(4) dopamine receptor (Homo sapiens) (UniProt P21917); conditions: Compound concentration 10.0 uM
Sequence of D(4) dopamine receptor (Homo sapiens) (P21917 whole entry): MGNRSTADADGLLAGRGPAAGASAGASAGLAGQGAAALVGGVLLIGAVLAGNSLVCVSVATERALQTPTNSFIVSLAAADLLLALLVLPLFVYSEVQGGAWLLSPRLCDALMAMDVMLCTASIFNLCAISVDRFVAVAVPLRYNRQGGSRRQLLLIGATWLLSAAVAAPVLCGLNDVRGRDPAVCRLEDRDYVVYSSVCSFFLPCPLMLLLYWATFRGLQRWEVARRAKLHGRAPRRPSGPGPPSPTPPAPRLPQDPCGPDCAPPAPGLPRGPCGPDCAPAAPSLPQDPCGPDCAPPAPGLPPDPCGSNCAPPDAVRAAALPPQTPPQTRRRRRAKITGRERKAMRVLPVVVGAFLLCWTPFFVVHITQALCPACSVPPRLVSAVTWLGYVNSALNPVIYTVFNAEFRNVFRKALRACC

[6] = target: Cell division control protein 42 homolog (Homo sapiens) (UniProt P60953); assay: CDC42 SGC Tm panel (DSF); conditions: for ΔTm: Compound concentration 10.0 uM
Sequence of Cell division control protein 42 homolog (Homo sapiens) (P60953 whole entry, looked up): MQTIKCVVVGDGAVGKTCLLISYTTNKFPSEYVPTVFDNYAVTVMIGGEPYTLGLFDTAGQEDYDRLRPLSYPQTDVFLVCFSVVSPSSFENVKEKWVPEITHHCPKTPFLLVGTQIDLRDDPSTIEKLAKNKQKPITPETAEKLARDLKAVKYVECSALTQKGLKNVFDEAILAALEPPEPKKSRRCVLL

[7] = target: Tyrosine-protein kinase Fes/Fps (Homo sapiens) (UniProt P07332); assay: FES SGC Tm panel (DSF); conditions: for ΔTm: Compound concentration 10.0 uM
Sequence of Tyrosine-protein kinase Fes/Fps (Homo sapiens) (P07332 whole entry): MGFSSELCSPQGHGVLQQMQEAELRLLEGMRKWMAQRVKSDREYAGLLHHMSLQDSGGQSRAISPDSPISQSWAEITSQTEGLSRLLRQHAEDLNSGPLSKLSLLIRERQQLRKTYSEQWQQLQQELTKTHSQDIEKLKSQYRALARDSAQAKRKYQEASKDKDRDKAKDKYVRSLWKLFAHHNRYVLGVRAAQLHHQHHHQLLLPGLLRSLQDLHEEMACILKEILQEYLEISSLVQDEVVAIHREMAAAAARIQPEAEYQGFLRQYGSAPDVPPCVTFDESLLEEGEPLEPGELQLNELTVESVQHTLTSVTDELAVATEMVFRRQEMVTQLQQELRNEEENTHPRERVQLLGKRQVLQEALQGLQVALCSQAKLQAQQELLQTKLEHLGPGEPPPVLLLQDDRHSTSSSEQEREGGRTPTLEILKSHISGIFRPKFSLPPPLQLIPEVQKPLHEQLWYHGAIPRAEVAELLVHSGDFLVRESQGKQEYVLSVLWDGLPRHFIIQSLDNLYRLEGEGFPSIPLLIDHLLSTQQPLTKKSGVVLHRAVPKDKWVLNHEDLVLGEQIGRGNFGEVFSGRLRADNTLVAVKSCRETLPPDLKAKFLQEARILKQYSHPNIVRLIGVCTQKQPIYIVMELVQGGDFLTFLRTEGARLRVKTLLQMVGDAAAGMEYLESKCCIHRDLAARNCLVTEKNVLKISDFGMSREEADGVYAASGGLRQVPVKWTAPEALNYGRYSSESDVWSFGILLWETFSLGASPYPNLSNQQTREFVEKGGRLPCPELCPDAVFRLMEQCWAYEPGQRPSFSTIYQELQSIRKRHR

[8] = target: Serine/threonine-protein kinase WNK1 (Homo sapiens) (UniProt Q9H4A3); assay: WNK1 SGC Tm panel (DSF); conditions: for ΔTm: Compound concentration 10.0 uM
Sequence of Serine/threonine-protein kinase WNK1 (Homo sapiens) (Q9H4A3 whole entry, looked up): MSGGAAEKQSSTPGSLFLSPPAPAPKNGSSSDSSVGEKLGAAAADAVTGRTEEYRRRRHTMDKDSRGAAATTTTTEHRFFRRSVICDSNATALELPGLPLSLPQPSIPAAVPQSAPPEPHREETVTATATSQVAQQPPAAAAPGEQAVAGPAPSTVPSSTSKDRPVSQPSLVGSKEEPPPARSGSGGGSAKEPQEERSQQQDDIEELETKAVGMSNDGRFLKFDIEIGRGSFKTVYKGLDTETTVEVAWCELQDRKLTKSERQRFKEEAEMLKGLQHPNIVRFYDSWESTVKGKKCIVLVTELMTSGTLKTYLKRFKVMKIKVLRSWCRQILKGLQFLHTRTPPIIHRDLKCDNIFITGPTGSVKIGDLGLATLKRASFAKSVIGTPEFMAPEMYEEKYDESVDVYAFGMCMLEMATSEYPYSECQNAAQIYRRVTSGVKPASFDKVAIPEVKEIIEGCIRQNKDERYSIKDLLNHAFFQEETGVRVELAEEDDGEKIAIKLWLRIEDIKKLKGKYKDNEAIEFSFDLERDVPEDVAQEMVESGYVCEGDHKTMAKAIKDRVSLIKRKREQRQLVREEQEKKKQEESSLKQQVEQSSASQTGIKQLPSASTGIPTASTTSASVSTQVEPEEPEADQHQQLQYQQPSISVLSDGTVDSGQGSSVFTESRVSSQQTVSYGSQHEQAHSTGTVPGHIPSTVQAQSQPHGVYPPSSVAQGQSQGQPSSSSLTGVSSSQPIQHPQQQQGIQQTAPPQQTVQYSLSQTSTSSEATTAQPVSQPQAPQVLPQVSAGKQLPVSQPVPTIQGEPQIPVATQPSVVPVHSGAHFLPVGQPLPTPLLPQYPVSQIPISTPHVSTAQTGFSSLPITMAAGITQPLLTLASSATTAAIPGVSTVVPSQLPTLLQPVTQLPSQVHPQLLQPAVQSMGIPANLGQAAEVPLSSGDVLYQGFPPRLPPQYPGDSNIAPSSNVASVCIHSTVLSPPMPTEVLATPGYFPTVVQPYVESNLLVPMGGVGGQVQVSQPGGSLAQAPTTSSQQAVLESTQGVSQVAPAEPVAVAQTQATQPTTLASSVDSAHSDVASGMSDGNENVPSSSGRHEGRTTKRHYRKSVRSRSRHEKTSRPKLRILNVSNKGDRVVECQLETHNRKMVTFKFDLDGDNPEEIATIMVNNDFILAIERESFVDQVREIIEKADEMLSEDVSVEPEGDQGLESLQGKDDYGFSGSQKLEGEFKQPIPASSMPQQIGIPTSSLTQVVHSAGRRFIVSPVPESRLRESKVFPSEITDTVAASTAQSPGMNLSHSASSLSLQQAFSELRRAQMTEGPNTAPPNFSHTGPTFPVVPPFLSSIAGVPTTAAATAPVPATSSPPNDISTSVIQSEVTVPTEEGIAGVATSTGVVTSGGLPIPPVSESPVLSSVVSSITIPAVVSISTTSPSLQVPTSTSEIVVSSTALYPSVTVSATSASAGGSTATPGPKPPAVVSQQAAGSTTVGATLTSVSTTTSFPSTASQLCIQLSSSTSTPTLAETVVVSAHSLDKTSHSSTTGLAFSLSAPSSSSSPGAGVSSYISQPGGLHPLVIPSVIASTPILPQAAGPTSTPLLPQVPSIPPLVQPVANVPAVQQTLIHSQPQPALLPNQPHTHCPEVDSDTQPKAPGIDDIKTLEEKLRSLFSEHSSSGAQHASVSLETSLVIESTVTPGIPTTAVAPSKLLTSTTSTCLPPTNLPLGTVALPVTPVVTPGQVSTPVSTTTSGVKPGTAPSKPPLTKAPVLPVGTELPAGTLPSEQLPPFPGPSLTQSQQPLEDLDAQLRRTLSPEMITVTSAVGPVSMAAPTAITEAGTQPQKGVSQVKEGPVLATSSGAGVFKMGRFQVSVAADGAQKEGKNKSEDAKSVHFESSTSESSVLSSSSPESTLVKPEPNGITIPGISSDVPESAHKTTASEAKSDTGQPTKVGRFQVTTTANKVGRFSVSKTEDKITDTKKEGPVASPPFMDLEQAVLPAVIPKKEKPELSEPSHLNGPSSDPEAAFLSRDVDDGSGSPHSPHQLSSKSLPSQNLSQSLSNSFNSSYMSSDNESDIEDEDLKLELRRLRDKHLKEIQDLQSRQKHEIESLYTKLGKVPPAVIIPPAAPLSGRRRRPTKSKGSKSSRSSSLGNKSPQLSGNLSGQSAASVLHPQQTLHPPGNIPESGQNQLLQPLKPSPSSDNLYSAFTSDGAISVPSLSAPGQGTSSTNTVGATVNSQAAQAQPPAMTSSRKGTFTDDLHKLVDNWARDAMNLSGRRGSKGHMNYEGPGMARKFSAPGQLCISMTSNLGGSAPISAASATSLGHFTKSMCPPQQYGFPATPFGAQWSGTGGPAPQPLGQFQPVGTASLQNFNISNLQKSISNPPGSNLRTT

SMILES | delta Tm Staurosporine positive control [1] | ΔTm [1] | delta Tm Staurosporine positive control [2] | ΔTm [2] | inhibition [3] [%] | delta Tm Staurosporine positive control [4] | ΔTm [4] | inhibition [5] [%] | delta Tm Staurosporine positive control [6] | ΔTm [6] | delta Tm Staurosporine positive control [7] | ΔTm [7] | delta Tm Staurosporine positive control [8] | ΔTm [8]
C[C@H](NC(=O)c1cn(C2(C#N)CC2)cn1)C(=O)Nc1nc(-c2cccc(-c3ccn(C)n3)c2)cs1 | 8.71 | -0.0366 | 6.19 | 0.229 | 36 | 12.6 | 1.03 | 6.59 | 2.78 | -0.206 | 8.7 | 0.0445 | 0.638 | 0.361
COC[C@H](NC(=O)c1ccn(S(C)(=O)=O)c1)C(=O)Nc1nc(-c2cccc(-c3ccn(C)n3)c2)cs1 | 8.71 | -0.217 | 6.19 | -0.318 | 16.7 | 12.6 | 0.566 | 1.52 | 2.78 | 0.57 | 8.7 | 0.123 | 0.638 | 0.232
